Entries after “also recorded” stand apart in the source; their conditions may differ.
Tests used:
[1] = system: THP-1 cells; assay: CCR2, FABP4, IL8 and PPARγ gene expression in PMA treated THP-1 cells (qRT-PCR); type: cell-based, human; conditions: 200 ng/ml PMA, 300 μM BN or BN NP, 24 hours
Experimental: (§1) THP-1 (human leukemia monocyte cell line) cells were obtained from American Type Culture Collection (ATCC, Manassas, VA). THP-1 cells (200,000/well) were placed in six-well plates. After overnight incubation in serum free RPMI medium, cells were treated with 200 ng/ml of phorbol 12-myristate 13-acetate (PMA, Sigma-Aldrich, St. Louis, MO) to induce monocyte differentiation into macrophages. […] Cells were collected and RNA was isolated using miRNeasy kit (Qiagen).
(§2) PCR primers were purchased from Integrated DNA technologies (ITD, San Diego, USA). The miRNeasy Kit was used to isolate RNA (Qiagen, Germantown, MD, USA) according to the manufacturer's instructions. The iscript c-DNA synthesis kit (Bio-Rad, Hercules, CA, USA) was used to synthesize cDNA, and real-time qRT-PCR was done with the iTaq universal SYBR green super mix (Bio-Rad) using a C1000 thermal cycler with CFX96 real-time system (Bio-Rad). TBP-1 was used as a reference gene, and gene expression data was normalized to the respective control veins. The 2^−ΔΔct method was used to measure the fold change in gene expression.

[2] = system: Mcp-1; assay: Mcp-1 gene expression in PMA treated THP-1 cells (qRT-PCR); type: cell-based, human
Experimental: as §1, §2

SMILES: CCCCCCCCCCCCCC(=O)O[C@@H]1[C@@H](C)[C@@]2(O)[C@@H](C=C(CO)C[C@]3(O)C(=O)C(C)=C[C@@H]23)[C@@H]2C(C)(C)[C@]12OC(C)=O [PMA, phorbol 12-myristate 13-acetate]
- CCR2 gene expression [1]: significantly increased; also recorded: induced
- FABP4 gene expression [1]: significantly increased; also recorded: induced
- IL8 gene expression [1]: significantly increased; also recorded: induced
- PPARγ gene expression [1]: significantly increased; also recorded: induced
- average Mcp-1 gene expression ([2]; 200 ng/ml PMA with or without 300 μM BN or BN NP, 24 hours, fold change): 9.77±1.58
- average increase of Mcp-1 gene expression ([2]; PMA compared to NP C alone): 859.13%
